Experimental data as given in ChEMBL document CHEMBL1201862, “PubChem BioAssay data set” (2004).
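Grown in 96-well plates, cells were treated for 48 hours with each compound at five concentrations. Insufficient inhibition: endpoint recorded as highest concentration tested. GI50 is the concentration that inhibits growth by half.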 Activity calls are given as the source filed them. No stated cut-off is given here; in the data, active = GI50 up to about 1.1 µM and inactive = higher.

Columns and labels:
Experiment in all cases: NCI tumour cell line growth inhibition, 48 h
MDA-MB-231 = system: MDA-MB-231
MCF7 = system: MCF7
HT-29 = system: HT-29
M14 = system: M14
OVCAR-8 = system: OVCAR-8
EKVX = system: EKVX
RXF 393 = system: RXF 393
SNB-19 = system: SNB-19
HL-60 = system: HL-60
COLO 205 = system: COLO 205
MDA-N = system: MDA-N
SF-295 = system: SF-295
NCI/ADR-RES = system: NCI/ADR-RES
HCT-15 = system: HCT-15
SK-MEL-5 = system: SK-MEL-5
SN12C = system: SN12C
Malme-3M = system: Malme-3M
SF-268 = system: SF-268
UACC-62 = system: UACC-62
SK-MEL-28 = system: SK-MEL-28

SMILES	GI50 (MDA-MB-231)	GI50 (MCF7)	GI50 (HT-29)	GI50 (M14)	GI50 (OVCAR-8)	GI50 (EKVX)	GI50 (RXF 393)	GI50 (SNB-19)	GI50 (HL-60)	GI50 (COLO 205)	GI50 (MDA-N)	GI50 (SF-295)	GI50 (NCI/ADR-RES)	GI50 (HCT-15) [µM]	GI50 (SK-MEL-5)	GI50 (SN12C)	GI50 (Malme-3M)	GI50 (SF-268)	GI50 (UACC-62)	GI50 (SK-MEL-28)
Oc1ccc(Nc2nc(Cl)c3nc[nH]c3n2)cc1	> 100 µM (inactive)	> 100 µM (inactive)	> 100 µM (inactive)	> 100 µM (inactive)	> 100 µM (inactive)	> 100 µM (inactive)	> 100 µM (inactive)	> 100 µM (inactive)	34.5 µM (inactive)	> 100 µM (inactive)	> 100 µM (inactive)	> 100 µM (inactive)	> 100 µM (inactive)	> 100	> 100 µM (inactive)	> 100 µM (inactive)	> 100 µM (inactive)	> 100 µM (inactive)	> 100 µM (inactive)	–
CCCC(=O)N(C(=O)CCC)C1=C(Cl)C(=O)c2ccccc2C1=O	18.2 µM (inactive)	1.84 µM (inactive)	8.51 µM (inactive)	6.62 µM (inactive)	6.25 µM (inactive)	5.36 µM (inactive)	2.17 µM (inactive)	6.73 µM (inactive)	0.574 µM (active)	2.91 µM (inactive)	7.45 µM (inactive)	15.8 µM (inactive)	3.86 µM (inactive)	2.1	3.1 µM (inactive)	13.3 µM (inactive)	–	4.32 µM (inactive)	2.49 µM (inactive)	3.72 µM (inactive)
Cc1ccc(/C=N/Nc2cc(C)c3ccccc3n2)s1	0.44 µM (active)	12 µM (inactive)	3.85 µM (inactive)	13.7 µM (inactive)	23.2 µM (inactive)	4.84 µM (inactive)	23.3 µM (inactive)	41.6 µM (inactive)	33.2 µM (inactive)	4.71 µM (inactive)	13.8 µM (inactive)	15.1 µM (inactive)	11.1 µM (inactive)	7.36	8.3 µM (inactive)	13.1 µM (inactive)	5.75 µM (inactive)	26.1 µM (inactive)	23.4 µM (inactive)	20.3 µM (inactive)
O=C1Nc2ccccc2/C1=N/Nc1ccc([N+](=O)[O-])cc1[N+](=O)[O-]	13.2 µM (inactive)	8.67 µM (inactive)	19.1 µM (inactive)	12.9 µM (inactive)	9.59 µM (inactive)	1.5 µM (inactive)	13.6 µM (inactive)	19.4 µM (inactive)	> 100 µM (inactive)	14.5 µM (inactive)	44.3 µM (inactive)	8.77 µM (inactive)	8.09 µM (inactive)	13.8	10.6 µM (inactive)	11.3 µM (inactive)	–	20.9 µM (inactive)	20.3 µM (inactive)	63 µM (inactive)
NC(=O)CC1(O)C=CC(=O)C=C1	> 100 µM (inactive)	> 100 µM (inactive)	> 100 µM (inactive)	> 100 µM (inactive)	> 100 µM (inactive)	> 100 µM (inactive)	> 100 µM (inactive)	> 100 µM (inactive)	> 100 µM (inactive)	> 100 µM (inactive)	> 100 µM (inactive)	> 100 µM (inactive)	> 100 µM (inactive)	> 100	> 100 µM (inactive)	> 100 µM (inactive)	> 100 µM (inactive)	–	> 100 µM (inactive)	> 100 µM (inactive)
CC(NC1=NCCO1)c1ccsc1 (stereo not drawn)	18.2 µM (inactive)	34.8 µM (inactive)	15.2 µM (inactive)	17.6 µM (inactive)	28.6 µM (inactive)	54.7 µM (inactive)	33.5 µM (inactive)	37.3 µM (inactive)	21.5 µM (inactive)	17.9 µM (inactive)	24.2 µM (inactive)	17.8 µM (inactive)	> 100 µM (inactive)	40.7	20 µM (inactive)	–	21 µM (inactive)	–	17.6 µM (inactive)	19 µM (inactive)
CC(=O)O[C@H]1CC[C@@]2(C)C(=CC[C@H]3[C@@H]4C[C@H](N5CCOCC5)[C@H](OC(C)=O)[C@@]4(C)CC[C@@H]32)C1	> 100 µM (inactive)	> 100 µM (inactive)	32.4 µM (inactive)	> 100 µM (inactive)	> 100 µM (inactive)	> 100 µM (inactive)	42.4 µM (inactive)	> 100 µM (inactive)	54.2 µM (inactive)	> 100 µM (inactive)	> 100 µM (inactive)	> 100 µM (inactive)	> 100 µM (inactive)	> 100	> 100 µM (inactive)	> 100 µM (inactive)	> 100 µM (inactive)	> 100 µM (inactive)	> 100 µM (inactive)	> 100 µM (inactive)
O=c1[nH]/c(=C/c2ccc(OCc3ccccc3)cn2)c(=O)[nH]/c1=C/c1ccc(F)cc1	8.13 µM (inactive)	0.301 µM (active)	0.434 µM (active)	0.698 µM (active)	3.74 µM (inactive)	3.49 µM (inactive)	0.243 µM (active)	2.3 µM (inactive)	0.217 µM (active)	0.55 µM (active)	0.069 µM (active)	0.33 µM (active)	0.614 µM (active)	0.157	0.366 µM (active)	0.785 µM (active)	0.759 µM (active)	1.73 µM (inactive)	0.938 µM (active)	–
Cc1ncc([N+](=O)[O-])n1CCNC(=O)CCC(=O)NCCCn1ccnc1[N+](=O)[O-]	> 100 µM (inactive)	> 100 µM (inactive)	> 100 µM (inactive)	> 100 µM (inactive)	> 100 µM (inactive)	> 100 µM (inactive)	> 100 µM (inactive)	–	> 100 µM (inactive)	> 100 µM (inactive)	> 100 µM (inactive)	> 100 µM (inactive)	> 100 µM (inactive)	> 100	> 100 µM (inactive)	> 100 µM (inactive)	> 100 µM (inactive)	> 100 µM (inactive)	> 100 µM (inactive)	> 100 µM (inactive)
CC(=O)O[C@@H]1[C@@H](C)[C@]2(CC(c3ccoc3)OC2O)C2CCC3O[C@]3(C)[C@]2(C)[C@@H]1OC(C)=O (stereo partly drawn)	> 100 µM (inactive)	41.5 µM (inactive)	32 µM (inactive)	82.6 µM (inactive)	37.2 µM (inactive)	56.4 µM (inactive)	35.1 µM (inactive)	> 100 µM (inactive)	18 µM (inactive)	20.3 µM (inactive)	42.1 µM (inactive)	71.6 µM (inactive)	40.2 µM (inactive)	25.4	25.4 µM (inactive)	39 µM (inactive)	–	91 µM (inactive)	20.4 µM (inactive)	25.9 µM (inactive)
O=C1Nc2c(Cl)cc(Cl)cc2/C1=N/N=C/c1ccco1	20.3 µM (inactive)	20.2 µM (inactive)	28.8 µM (inactive)	34.7 µM (inactive)	22.8 µM (inactive)	7.6 µM (inactive)	32.1 µM (inactive)	80.7 µM (inactive)	29.7 µM (inactive)	22.4 µM (inactive)	18.9 µM (inactive)	31.7 µM (inactive)	21.4 µM (inactive)	28.8	29.6 µM (inactive)	26.6 µM (inactive)	56.6 µM (inactive)	–	21.5 µM (inactive)	33 µM (inactive)
CSC[C@H](NC(=O)COc1cccc2cnccc12)C(=O)NC(Cc1ccccc1)C(O)C(=O)N1CSC[C@H]1C(=O)NC(C)(C)C (stereo partly drawn)	> 100 µM (inactive)	68.2 µM (inactive)	33.7 µM (inactive)	78.2 µM (inactive)	78.3 µM (inactive)	–	29.2 µM (inactive)	> 100 µM (inactive)	33.8 µM (inactive)	27.5 µM (inactive)	38.4 µM (inactive)	60.4 µM (inactive)	> 100 µM (inactive)	> 100	> 10 µM (inactive)	84.7 µM (inactive)	> 100 µM (inactive)	16.9 µM (inactive)	57.3 µM (inactive)	78.2 µM (inactive)
CN(C)Cc1cc(C(=O)/C=C/c2c(F)cccc2Cl)cc(CN(C)C)c1O	13.1 µM (inactive)	3.03 µM (inactive)	10.9 µM (inactive)	13.2 µM (inactive)	12.4 µM (inactive)	12.8 µM (inactive)	2.69 µM (inactive)	18.1 µM (inactive)	3.02 µM (inactive)	10.8 µM (inactive)	13 µM (inactive)	11.6 µM (inactive)	17 µM (inactive)	4.34	15.3 µM (inactive)	4.57 µM (inactive)	11.8 µM (inactive)	10.1 µM (inactive)	12.3 µM (inactive)	14.5 µM (inactive)
C=C(C)[C@H]1CC[C@@]23O[C@@H]2[C@@H](C[C@@]2(C)CC(=O)[C@H](CC(=O)C1)O2)OC(=O)[C@@]12CC[C@H](C(=C)C)CC(=O)C[C@H]4O[C@](C)(CC4=O)C[C@@H](OC3=O)[C@@H]1O2 [SINGARDIN]	> 100 µM (inactive)	> 100 µM (inactive)	> 100 µM (inactive)	> 100 µM (inactive)	> 100 µM (inactive)	> 100 µM (inactive)	> 100 µM (inactive)	> 100 µM (inactive)	> 100 µM (inactive)	> 100 µM (inactive)	> 100 µM (inactive)	> 100 µM (inactive)	> 100 µM (inactive)	> 100	74.5 µM (inactive)	> 100 µM (inactive)	> 100 µM (inactive)	–	> 100 µM (inactive)	> 100 µM (inactive)
